Reference: publication PMC11510214, “Novel Dual Acetyl- and Butyrylcholinesterase Inhibitors Based on the Pyridyl–Pyridazine Moiety for the Potential Treatment of Alzheimer’s Disease” (Pharmaceuticals, 2024)
“And” between values parts separate entries of the source, which are not always exact repeats. Equal entries are not always repeated.

Columns and labels:
[1] = target: T1, acetylcholinesterase (AChE) (Homo sapiens, UniProt P22303); conditions: for Selectivity Index (AChE/BuChE): ratio between (AChE/BuChE) IC50; for IC50 against acetylcholinesterase (AChE): human enzyme, dose response 0.01 to 100 µM;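 as to all read-outs here: Kit-based enzyme assay using enzymes of human origin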
T1 sequence (P22303 32-614): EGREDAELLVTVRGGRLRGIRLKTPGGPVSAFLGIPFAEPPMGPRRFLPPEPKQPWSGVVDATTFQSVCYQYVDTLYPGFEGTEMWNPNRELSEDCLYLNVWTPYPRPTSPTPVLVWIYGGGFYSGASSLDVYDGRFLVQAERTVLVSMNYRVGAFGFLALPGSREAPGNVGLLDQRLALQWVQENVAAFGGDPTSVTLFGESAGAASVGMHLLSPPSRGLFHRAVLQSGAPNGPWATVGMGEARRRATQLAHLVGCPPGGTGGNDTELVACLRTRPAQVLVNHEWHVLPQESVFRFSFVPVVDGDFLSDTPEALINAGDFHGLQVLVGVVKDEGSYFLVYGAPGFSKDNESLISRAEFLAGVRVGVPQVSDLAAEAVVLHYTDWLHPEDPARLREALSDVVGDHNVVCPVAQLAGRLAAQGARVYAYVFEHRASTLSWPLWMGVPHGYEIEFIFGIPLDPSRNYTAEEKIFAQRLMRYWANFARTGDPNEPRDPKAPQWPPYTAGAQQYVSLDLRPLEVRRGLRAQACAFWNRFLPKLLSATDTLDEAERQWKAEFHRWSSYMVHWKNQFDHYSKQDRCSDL
Description: (§1) Experimental procedures were followed as instructed by the kits’ manufacturer. The enzymes used in the assays were of human origin. IC50 values of the compounds were calculated from the obtained dose response curve, and selectivity index was calculated as a ratio between (AChE/BuChE) IC50.

[2] = target: butyrylcholinesterase (BuChE) (Homo sapiens, UniProt P06276); assay: biochemical; conditions: for IC50: IC50 against butyrylcholinesterase (BuChE), human enzyme, dose response 0.01 to 100 µM; for inhibition at 0.01 µM / inhibition at 0.1 µM / inhibition at 1 µM / inhibition at 10 µM / inhibition at 100 µM: read-out: % inhibition BuChE
Sequence of butyrylcholinesterase (BuChE) (P06276 29-602): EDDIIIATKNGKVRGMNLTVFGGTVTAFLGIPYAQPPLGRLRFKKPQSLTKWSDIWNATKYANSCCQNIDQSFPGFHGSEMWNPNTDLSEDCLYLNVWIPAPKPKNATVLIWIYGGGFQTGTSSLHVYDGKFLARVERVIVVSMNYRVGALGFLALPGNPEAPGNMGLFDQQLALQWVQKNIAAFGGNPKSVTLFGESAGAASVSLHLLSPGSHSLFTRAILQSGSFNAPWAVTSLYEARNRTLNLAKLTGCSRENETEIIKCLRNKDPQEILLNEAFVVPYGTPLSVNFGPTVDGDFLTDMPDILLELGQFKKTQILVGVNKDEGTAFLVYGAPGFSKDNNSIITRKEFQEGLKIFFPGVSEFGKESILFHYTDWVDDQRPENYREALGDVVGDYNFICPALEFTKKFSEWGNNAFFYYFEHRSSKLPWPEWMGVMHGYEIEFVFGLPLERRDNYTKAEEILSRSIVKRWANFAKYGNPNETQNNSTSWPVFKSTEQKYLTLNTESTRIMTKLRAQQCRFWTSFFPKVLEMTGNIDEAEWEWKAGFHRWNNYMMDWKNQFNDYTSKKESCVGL
Description: as §1

[3] = target: T1, acetylcholinesterase (AChE); assay: biochemical; conditions: for IC50: IC50 against acetylcholinesterase (AChE), human enzyme, dose response 0.01 to 100 µM; for inhibition at 0.01 µM / inhibition at 0.1 µM / inhibition at 1 µM / inhibition at 10 µM / inhibition at 100 µM: read-out: % inhibition AChE
Description: as §1

[4] = tested on: AChE; design: method as in PMID 23466605, PMID 10052979, PMID 29775949, PMID 31675671; conditions: Figure 1; ref [37],[30],[34],[38],[36]; read-out: AChE inhibition IC50; cited from earlier work

SMILES	Selectivity Index (AChE/BuChE) [1]	IC50 [2]	inhibition at 0.01 µM [2] [%]	inhibition at 0.1 µM [2] [%]	inhibition at 1 µM [2] [%]	inhibition at 10 µM [2] [%]	inhibition at 100 µM [2] [%]	IC50 [3]	inhibition at 0.01 µM [3] [%]	inhibition at 0.1 µM [3] [%]	inhibition at 1 µM [3] [%]	inhibition at 10 µM [3] [%]	inhibition at 100 µM [3] [%]	IC50 [4] [µM]	IC50 against acetylcholinesterase (AChE) [1]
OC[C@H]1O[C@@H](n2cc(CSc3ccc(-c4ccccn4)nn3)nn2)[C@H](O)[C@@H]1O [Compound 8, (2R,3S,4R,5R)-2-(Hydroxymethyl)-5-(4-(((6-(pyridin-2-yl)pyridazin-3-yl)thio)methyl)-1H-1,2,3-triazol-1-yl)tetrahydrofuran-3,4-diol]	0.12	5.35 ± 0.17 µM	5.9	13	22	55	82	0.64 ± 0.02 µM	26	43	62	88	93	–	–
CCN(C)C(=O)Oc1cccc([C@H](C)N(C)C)c1 [Rivastigmine, rivastigmine, reference compound]	–	–	0.7	3.2	7	38	80	–	–	–	–	–	–	–	–
COc1ccc(-c2ccc(C(=O)NCCC3CCN(Cc4ccccc4)CC3)nn2)cc1 [V]	–	–	–	–	–	–	–	–	–	–	–	–	–	0.11	–
COc1cc2c(cc1OC)C(=O)C(CC1CCN(Cc3ccccc3)CC1)C2 (centres unmarked) [Donepezil, donepezil, reference compound]	–	–	16	32	65	84	94	–	–	–	–	–	–	–	–
CC(=O)OC[C@H]1O[C@@H](n2cc(CSc3ccc(-c4ccccn4)nn3)nn2)[C@H](OC(C)=O)[C@@H](OC(C)=O)[C@H]1OC(C)=O [Compound 4, (2R,3S,4S,5R,6R)-2-(Acetoxymethyl)-6-(4-(((6-(pyridin-2-yl)pyridazin-3-yl)thio)methyl)-1H-1,2,3-triazol-1-yl)tetrahydro-2H-pyran-3,4,5-triyl triacetate]	0.81	14.6 ± 0.48 µM	5.1	11	20	41	75	11.9 ± 0.5 µM	11	29	47	71	87	–	–
CC(=O)OCC1O[C@@H](n2cc(CNc3c4c(nc5ccccc35)CCCC4)nn2)C(OC(C)=O)C(OC(C)=O)C1OC(C)=O (some centres unmarked) [VI]	–	–	–	–	–	–	–	–	–	–	–	–	–	4.89	–
C#CCSc1ccc(-c2ccccn2)nn1 [Compound 1, 3-(Prop-2-yn-1-ylthio)-6-(pyridin-2-yl)pyridazine]	2.64	4.37 ± 0.14 µM	8.7	19	27	54	83	11.5 ± 0.48 µM	6.1	23	51	74	89	–	–
CC(=O)OC1COC(n2cc(CSc3ccc(-c4ccccn4)nn3)nn2)C(OC(C)=O)C1OC(C)=O (centres unmarked) [Compound 5]	1.41	0.189 µM and 0.18 µM	25	48	67	78	91	0.266 µM and 0.26 µM	42	61	71	83	94	–	–
CC(=O)OCC1OC(n2cc(CSc3ccc(-c4ccccn4)nn3)nn2)C(OC(C)=O)C(OC(C)=O)C1OC(C)=O [Compound 3, (2R,3R,4S,5R,6R)-2-(Acetoxymethyl)-6-(4-(((6-(pyridin-2-yl)pyridazin-3-yl)thio)methyl)-1H-1,2,3-triazol-1-yl)tetrahydro-2H-pyran-3,4,5-triyltriacetate]	29.32	0.297 µM and 0.29 µM	25	39	61	79	93	8.71 µM and 8.7 µM	7.4	23	43	72	88	–	moderate inhibition
CC(=O)OC[C@H]1O[C@@H](n2cc(CSc3ccc(-c4ccccn4)nn3)nn2)[C@H](OC(C)=O)[C@@H]1OC(C)=O [Compound 6, (2R,3R,4R,5R)-2-(Acetoxymethyl)-5-(4-(((6-(pyridin-2-yl)pyridazin-3-yl)thio)methyl)-1H-1,2,3-triazol-1-yl)tetrahydrofuran-3,4-diyl diacetate]	0.29	32 ± 1.05 µM	4	8.1	19	33	69	9.15 µM	9	29	55	73	88	–	moderate inhibition
NCCn1cc(CSc2ccc(-c3ccccn3)nn2)nn1 [Compound 11, 2-(4-(((6-(Pyridin-2-yl)pyridazin-3-yl)thio)methyl)-1H-1,2,3-triazol-1-yl)ethan-1-amine]	0.34	42.9 ± 1.52 µM	-8.1	7.5	12	33	71	14.6 ± 0.61 µM	7.5	26	53	76	90	–	–
OCCOCCn1cc(CSc2ccc(-c3ccccn3)nn2)nn1 [Compound 9]	1.68	0.384 µM and 0.38 µM	22	37	56	80	93	0.647 µM and 0.64 µM	35	54	70	82	92	–	–
Cc1ccc(-c2ccc(=O)n(CCc3n[nH]c(=S)n3-c3ccc(OC(F)(F)F)cc3)n2)cc1 [VII]	–	–	–	–	–	–	–	–	–	–	–	–	–	0.049	–
OCCn1cc(CSc2ccc(-c3ccccn3)nn2)nn1 [Compound 10, 2-(4-(((6-(Pyridin-2-yl)pyridazin-3-yl)thio)methyl)-1H-1,2,3-triazol-1-yl)ethan-1-ol]	0.30	6.06 ± 0.2 µM	5.6	13	31	51	78	1.84 ± 0.07 µM	24	40	68	83	90	–	–
OC[C@H]1O[C@@H](n2cc(CSc3ccc(-c4ccccn4)nn3)nn2)[C@H](O)[C@@H](O)[C@@H]1O [Compound 7, (2R,3S,4S,5R,6R)-2-(Hydroxymethyl)-6-(4-(((6-(pyridin-2-yl)pyridazin-3-yl)thio)methyl)-1H-1,2,3-triazol-1-yl)tetrahydro-2H-pyran-3,4,5-triol]	0.39	7.9 ± 0.26 µM	7.8	13	23	48	79	3.14 ± 0.13 µM	14	38	62	80	92	–	moderate inhibition
